“Also recorded” adds a separate entry of the source.
How the values were obtained:
[1] = system: INSR; test: mRNA expression of growth factor receptors after growth factor treatment (microarray); format: cell-based, human; conditions: MCF7 and HT29 cells; 100 ng/ml (heregulin 30 ng/ml)
Procedure: (§1) FIG. 29. Negative feedback induced by growth factors. The data presented represents the effect of each growth factor on the mRNA expression of (A) EGFR, (B) ERBB3, (C) INSR, or (D) a recently published signature of aberrant PTEN activity. The Y-axes represent the log(10) ratio of expression relative to vehicle. […] The X-axes represent the time point after growth factor addition.
(§2) MCF-7 and HT-29 cell lines were seeded in 6-well plates to achieve 40-50% confluence at the time of growth factor addition. Cells were serum starved for 24 hours in 0.2% charcoal stripped serum, and growth factors were added at 100 ng/ml (EGF, IGF, insulin, b-FGF) or 30 ng/ml (heregulin). Concentrations of growth factors were chosen to give maximal activation of growth factor receptors as judged by receptor auto-phosphorylation. Activation of growth factor receptor pathways after growth factor addition was confirmed by Western analysis of phosphorylated MAPK and phosphorylated AKT in a separate plate of cells (data not shown). Cells were harvested at 30 minutes, 2 hours, 6 hours, 18 hours, and 24 hours after growth factor addition. DMSO (vehicle) treated cells were also harvested at each time point. RNA was prepared using RLT lysis reagent Qiagen spin columns according to manufacturer instructions.
(§3) For growth factor and AKT inhibitor treated cells, total RNA was isolated from cell lines and converted to fluorescently labeled cRNA that was hybridized to DNA oligonucleotide microarrays as described previously (Hughes et al., 2001, Nat. Biotechnol. 19:342-347; Marton et al., 1998, Nat. Med. 4:1293-1301). Briefly, 4 μg of total RNA from each treated sample was used to synthesize dsDNA through reverse transcription. cRNA was produced by in vitro transcription and labeled post-synthetically with Cy3 or Cy5. cRNA derived from growth factor or AKT inhibitor treated cells (experimental sample) was hybridized against cRNA derived from vehicle treated samples (reference sample). Two hybridizations were done with each cRNA sample pair using fluorescent dye reversal strategy. For growth factor treated cells, microarrays contained 23,880 probes representing genes or expressed sequence tags (GEO platform GPL2029). For AKT inhibitor treated cells, microarrays contained 23,658 probes representing genes or expressed sequence tags (GEO platform GPL3991). Probe sequences were chosen to maximize gene specificity and minimize the 3′-replication bias inherent in reverse transcription of mRNA. In addition, all microarrays contained approximately 2,000 control probes for quality control purposes. All probes on the microarrays were synthesized in situ with inkjet technology (Agilent Technologies, Palo Alto, Calif.; Hughes et al, 2001, Nat. Biotechnol. 19:342-347). After hybridization, arrays were scanned and fluorescence intensities for each probe were recorded. Ratios of transcript abundance (experimental to control) were obtained following normalization and correction of the array intensity data. Gene expression data was analyzed using Rosetta Resolver gene expression analysis software (version 7.0, Rosetta Biosoftware, Seattle, Wash.) and MATLAB (The MathWorks, Natick, Mass.).
(§4) As such, care should be taken when using mRNA levels of ERBB3 or INSR as a surrogate for activity of signaling through these receptors.

[2] = system: ERBB3; test: as above; format: cell-based, human; conditions: MCF7 and HT29 cells; 100 ng/ml (heregulin 30 ng/ml)
Procedure: as §1, §2, §3, §4

[3] = system: EGFR; test: as above; format: cell-based, human; conditions: MCF7 and HT29 cells; 100 ng/ml (heregulin 30 ng/ml)
Procedure: as §1, §2, §3, §4

[4] = system: MYC signature; test: MYC signature (Bild et al.) in response to inhibition of oncology targets; format: cell-based; conditions: cancer cell lines of FIG. 6C
Procedure: FIG. 6. Relationship of AKT and MYC signatures. The AKT and MYC signature scores are highly correlated in the (A) colon (r=0.81) and (B) breast (r=0.82) tumor atlas datasets. The AKT signature score was calculated as described previously. […] (C) The Bild et al. MYC signature is inhibited by small molecule inhibitors of AKT, cMET and FGFR2, but not by taxol or inhibition of KSP. […] Experiments are listed on the left side of the heatmap (HCT116: colon cancer cells, LoVo: colon cancer cells, GTL-16: gastric cancer cells, EBC-1: lung cancer cells, KATO III: gastric cancer cells, SUM52: breast cancer cells). The drug (taxol) or drug target (all others) profiled in each experiment is indicated along the right side of the heatmap.
Bild et al. published a gene expression signature that was regulated in response to cMYC (also known as MYC) overexpression in primary human mammary epithelial cells (2006, Nature, 439:353-357). This MYC signature was analyzed in the context of tumor expression atlas data. The tumor expression atlas is a collection of gene expression data measured in several different types of human tumors, including breast, colon, gastric, kidney, and lung tumors. […] Therefore, we assessed the regulation of the MYC signature in response to inhibition of AKT and other oncology targets. […]

[5] = system: SXF-1186; test: Patient-derived tumor xenograft growth inhibition (T/C); format: in vivo, NMRI female nu/nu mice; conditions: 500 μg/mouse ip once weekly
[6] = system: growth factor signaling pathway signature in MAXF-713; test: Growth factor signaling pathway signature score post/pre-dose ratio in xenografts; format: in vivo, NMRI female nu/nu mice; conditions: 24 hours after a single treatment, 500 μg/mouse ip
Procedure: (§5) Animals of Groups 3 and 4 were sacrificed for sample collection when the tumors had volumes between 400 and 600 mm^3 and 24 hours after a single treatment with either the control vehicle (Group 3) or IGF1R (Group 4). Tumors were cut into two parts, snap frozen in liquid nitrogen and stored at −80° C. RNA was harvested from both vehicle-treated and MK0646-treated samples as previously described for hybridization to DNA oligonucleotide arrays.
(§6) Regulation of the growth factor signaling pathway signature by MK-0646 was assessed by comparing mean gene expression profiles of MK0646 treated samples for each xenograft to the mean gene expression profile of the vehicle treated samples. The log(10) ratio of expression in the MK-0646 treated samples relative to the vehicle treated samples was calculated for every probe on the microarray. The growth factor signaling pathway signature score was calculated as the mean log(10) ratio of the genes in the “up” arm of the signature (see Table 5a) minus the mean log(10) ratio of the genes in the “down” arm of the signature (see Table 5b). A post/pre-dose ratio of the growth factor signaling pathway signature score was then calculated and compared to the tumor inhibition T/C ratio for each xenograft (see FIG. 34).

[7] = system: growth factor signaling pathway signature in LXFA-629; test: as above; format: in vivo, NMRI female nu/nu mice; conditions: 24 hours after a single treatment, 500 μg/mouse ip
Procedure: as §5, §6

[8] = system: LXFA-629; test: Patient-derived tumor xenograft growth inhibition (T/C); format: in vivo, NMRI female nu/nu mice; conditions: 500 μg/mouse ip once weekly
From the text: (§7) NMRI female nu/nu mice were subcutaneously implanted with patient-derived tumor xenografts: lung adenocarcinoma LXFA 526, LXFA 629, LXFA 677, LXFA 749 and LXFA 1012; squamous cell lung carcinoma LXFE, 211, LXFE 397, LXFE 409 and LXFE 1422; small cell lung cancer LXFS 538, LXFS 573 and LXFS 615; colorectal carcinoma CXF 94LX, CXF 158, CXF 280, CXF 975, CXF 1103 and CXF 1729; renal cell carcinoma RXF 393, RXF 423, RXF 631 and RXF 1220; gastric cancer GXF 97, GXF 251 and GXF 281; ovarian cancer OVXF 550, OVXF 899, OVXF 1023, OVXF 1353 and OVXF 1544 (Oncotest GmbH, Freiburg, Germany). All tumor xenografts were derived from surgical specimen from human patients and directly transplanted into nude mice for propagation. Tumor xenografts were passaged in nude mice until establishment of a stable growth pattern. Master stocks of early passage xenografts were frozen in liquid nitrogen. A particular master stock batch is typically only used for about 20 further passages. Tumor fragments were obtained from xenografts in serial passage in nude mice. After removal of tumors from donor mice, they were cut into fragments (1-2 mm diameter) and placed RPMI 1640 culture medium until subcutaneous implantation. Recipient mice were anesthetized by inhalation of isoflurane. Tumor fragments (1-2 per mouse) were transplanted subcutaneously into the backs of recipient mice. Animals carrying at least one tumor of appropriate size (mean tumor diameter 6-8 mm, minimum acceptable tumor diameter 5 mm) were considered for randomization into treatment and vehicle control groups.
(§8) MK-0646 IGF1R monoclonal antibody (U.S. Pat. No. 7,241,444) was diluted to a final dosing concentration of 2 mg/mL with 20 mM—L Histidine, 150 mM NaCl, 0.5% PS—80 w/w pH 6.5 at ratio of 1:5.65. The diluted treatment solution was administered at an application volume of 250 μl/mouse for the dose level of 500 μg/mouse. The control vehicle was 20 mM-L Histidine, 150 mM NaCl, 0.5% PS-80 w/w, pH6.5. Vehicle was administered at 250 μl/mouse. IGF1R monoclonal antibody and control vehicle were injected intraperitoneally. Test and control mice were injected once a week on the same days. The number of injections ranged from 2 to 7, depending on the duration of the experiment. Experiments were terminated when one of the limits set by the German animal regulations was met.
(§9) Each experiment consisted of a vehicle control group (Group 1) receiving 20 mM-L Histidine, 150 mM NaCl, 0.5% PS-80 w/w, pH6.5 at 250 μL/mouse ip once weekly and one group treated with IGF-1R at 500 μg/mouse ip once weekly (Group 2). For sample collection purposes each experiment also comprised two groups (Groups 3 and 4) receiving a single therapy either with the vehicle or with IGF-1R at the same dose levels. According to the study protocol the group size in the efficacy groups (Groups 1 and 2) was 7 mice while the sample collection groups (Group 3 and 4) contained 3 nude mice each. In the experiments with CXF 1103 and RXF 631 bearing mice the efficacy groups contained 8 mice and group size in the efficacy groups of the experiment with LXFE 211 bearing nude mice was 9. […]
(§10) Relative volumes of individual tumors (RTVs) for Day x were calculated by dividing the individual tumor volume on Day X (Tx) by the individual volume of the same tumor on Day 0 (T0) multiplied by 100%.
(§11) [formula] Group tumor volumes were expressed as the median RTV of all tumors in a group (group median RTV). […]

[9] = system: CSF-1729; test: as above; format: in vivo, NMRI female nu/nu mice; conditions: 500 μg/mouse ip once weekly
From the text: as §7, §8, §9, §10, §11

[10] = system: CSF-94LX; test: as above; format: in vivo, NMRI female nu/nu mice; conditions: 500 μg/mouse ip once weekly
From the text: as §7, §8, §9, §10, §11

[11] = system: OVXF-899; test: as above; format: in vivo, NMRI female nu/nu mice; conditions: 500 μg/mouse ip once weekly
From the text: as §7, §8, §9, §10, §11

[12] = system: CSF-280; test: as above; format: in vivo, NMRI female nu/nu mice; conditions: 500 μg/mouse ip once weekly
From the text: as §7, §8, §9, §10, §11

[13] = system: MAXF-713; test: as above; format: in vivo, NMRI female nu/nu mice; conditions: 500 μg/mouse ip once weekly

## EGF: growth factor added to cells at 100 ng/ml
[1]
  INSR mRNA expression: significant down-regulation
[2]
  ERBB3 mRNA expression: significant down-regulation
[3]
  EGFR mRNA expression: did not result in down-regulation

## CC(=O)O[C@H]1C(=O)[C@@]2(C)[C@H]([C@H](OC(=O)c3ccccc3)[C@]3(O)C[C@H](OC(=O)[C@H](O)[C@@H](NC(=O)c4ccccc4)c4ccccc4)C(C)=C1C3(C)C)[C@]1(OC(C)=O)CO[C@@H]1C[C@@H]2O [taxol]
[4]
  inhibition of the MYC signature developed by Bild et al.: not inhibited

## MK-0646: IGF1R monoclonal antibody (U.S. Pat. No. 7,241,444)
[5]
  tumor inhibition (T/C ratio): moderate response
[6]
  growth factor signaling score post/pre-dose ratio: low
[7]
  growth factor signaling score post/pre-dose ratio: low
[8]
  tumor inhibition (T/C ratio): strong tumor inhibition; also recorded: most tumor inhibition
[9]
  tumor inhibition (T/C ratio): moderate response
[10]
  tumor inhibition (T/C ratio): strong tumor inhibition
[11]
  tumor inhibition (T/C ratio): strong tumor inhibition
[12]
  tumor inhibition (T/C ratio): moderate response
[13]
  tumor inhibition (T/C ratio): strong tumor inhibition; also recorded: most tumor inhibition

Source: US8392127B2, “Methods and gene expression signature for assessing growth factor signaling pathway regulation status” (Merck Sharp & Dohme Corp., priority 2008, dated 2013)
